# Assay results taken from patent US5624894A, “Brain-enhanced delivery of neuroactive peptides by sequential metabolism” (University of Florida, priority 1995, dated 1997).
# “And” between values parts separate entries of the source, which are not always exact repeats. Equal values may be shown once. Square brackets hold non-standard residues; d marks the D form. Ends that are not written are not given here. Peptide text beside a SMILES is read from it. * marks the point of attachment. O(cholesteryl) = CC(C)CCC[C@@H](C)[C@H]1CC[C@H]2[C@@H]3CC=C4C[C@@H](O*)CC[C@]4(C)[C@H]3CC[C@]12C; Nicotinoyl(1-Me-1,4-dihydro) = CN1C=CCC(C(=O)*)=C1; X1 = C[n+]1cccc(C(=O)*)c1
# Tests used:
# [1] = system: brain peptidases (rat brain homogenate); assay: Incubation of targetor-peptide conjugate in rat brain homogenate; type: in vitro ADME; details: 30 nmol in 1 ml 20% rat brain homogenate, pH 7.4 Tris, 37° C., 0.5 and 2 hours
# Experimental: Compound (C) (30 nmol) was added to one ml rat brain homogenate (20%, w/w, in pH 7.4 Tris buffer), and the mixture was incubated at 37° C. Aliquots (250 t l) were removed 0.5 and 2 hours after incubation, and electrospray ionization mass spectra were obtained after sample preparation identical to that described above. Proteolytic cleavages are identified by the m/z of the products, and the corresponding structures are shown in the Scheme.
# [2] = Detection of peptide conjugates in rat brain tissue and blood by electrospray ionization MS after i.v. compound (A); type: in vivo; details: 15 minutes after i.v. compound (A) for [D-Ala2]-Leu-enkephalin, 20 mg/kg, rats; estimated
# Source text: This approach has been evaluated by using electrospray ionization mass spectrometry, which provides the specificity necessary to monitor the biotransformation processes that occur after delivery. In vivo distribution studies with rats as experimental models (described in detail below) have shown that, upon systemic administration, the modified peptide can partition by passive, nonsaturable transport into the brain which is inaccessible to the unmanipulated compound. At this first step, the modified peptide simply enters the brain because of its lipoidal nature. The targetor moiety, however, undergoes an enzyme-mediated oxidation analogous to the endogenous NAD(P)H.revreaction.NAD(P)^+ coenzyme associated with numerous oxidoreductases and cellular respiration. […]
# Detection of the peptide conjugates in the brain tissue by electrospray ionization mass spectrometry was carried out after systemic administration of compound (A). […] The solvent was removed under a dry nitrogen stream, and the reconstituted (in 50% methanol plus 50% water containing 3% acetic acid) sample was analyzed by electrospray ionization mass spectrometry at 5 μl/minute flow rate. […] Quantification was based on comparing the peak intensity to that obtained from the brain sample of an untreated animal spiked with a known amount of compound (C).
# [3] = ACTH4-9 analog, behavioral effects; cited from earlier work
# [4] = Stability and water solubility observed during synthesis; type: physicochemical; details: reaction work-up
# Experimental: In all cases before the N-alkylation step, the intermediates were purified by chromatography. In order to avoid side reactions, the N-methylations were performed at room temperature (20°-25° C.) with a slight excess of alkylating agent. The reductions with sodium dithionite were accomplished by cooling at 0°-5° C. in oxygen-free conditions at a pH of approximately 7. The quaternary salts are fairly stable when isolated, but the dihydropyridine derivatives are easily oxidized or hydroxylated and in acid conditions react readily with water.
# Trigonellyl-Ala-Tyr-Arg-cholesteryl ester methylsulfate (0.09 g, […]) (30) was dissolved in 20 ml of H2 O, then NaHCO3 (0.05 g, […]) and Na2 S2 O4 (0.07 g, 0.04 mmol) were added in small portions while stirring at 0° C. The reaction vessel was stoppered under nitrogen and allowed to stir for 1.5 hours at 0° C. […] The extraction was repeated 3 times, the organic layers were combined and the solvent was removed in vacuo, to afford 0.056 g of compound (31), yield 62.2%.
# [5] = system: Swiss Webster mice; assay: Methohexital (barbiturate)-induced sleeping time in mice after i.v. injection; type: in vivo; details: Table 1 experiment, CDS 30 mg/kg i.v., mice
# Source text: Two representative chemical delivery systems (CDS's) of the invention for the TRH analog [Leu^2 ]-TRH, i.e., compound (8) of Scheme I/EXAMPLE 8, which has an alanine spacer, and compound (12) of Scheme II/Example 12, which has an alanine-alanine spacer, were studied for their effects on the barbiturate-induced sleeping time in mice. TRH is known to antagonize the reduction in cholinergic activity induced by barbiturates. Thus, the activational effects of the CDS's for TRH analogs on cholinergic neurons can be measured by quantitating the antagonism of pentobarbital-induced sleeping and barbiturate-induced reduction in cholinergic neuronal activity.
# Swiss Webster mice weighing 30±2 g were used. The compounds were dissolved in a vehicle consisting of DMSO, ethanol and 50% (w/w) 2-hydroxypropyl-β-cyclodextrin at a ratio of 1:2:1 (15 mg/ml). CDS's at a dose of 30 mg/kg were injected in the animals through the tail vein. Vehicle only and an equimolar dose of TRH and [Leu^2 ]-TRH, 10 mg/kg, were also administered to compare CNS activities. Ten minutes after i.v. injection of the compound, each animal received an intraperitoneal injection of sodium methohexital solution (45 mg/ml) at a dose of 90 mg/kg. The sleeping time was recorded as the time elapsed from the onset of loss of the […] until the reflex was regained. Each compound and the vehicle control were tested on 5-11 animals. The statistical analysis was performed using the Student's t test.
# [6] = system: opioid ([^3 H]diprenorphine-based competitive assay); assay: [3H]diprenorphine-based competitive assay; type: binding; details: read-out: 50 percent inhibitory concentration (IC50)
# Source text: The test procedure is described hereinbelow following the EXAMPLES, and the results are shown in Tables 5-8 and FIGS. 3-5 for (A) where [SEQ. ID NO. 27] YAGFL is [D-Ala^2 ]-[D-Leu]-enkephalin; i.e., Compound (64) in the EXAMPLES. The targetor-peptide conjugates (C), such as compound (70), are weak opioids. The 50 percent inhibitory concentration (IC50) measured with [^3 H]diprenorphine-based competitive assay is about 10^-7 M, an order of magnitude less than the IC50 of about 10^-8 M for the enkephalin analogs. At the measured 500 to 700 pmol/g tissue concentration, even these weak opioids exert significant analgesic activity. The enkephalin analog may also be released slowly from the targetor-peptide conjugate in vivo, and contribute to the CNS activity. No analgesia was observed after the intravenous administration of the unmanipulated enkephalins, which are membrane-impermeable and unprotected toward various peptide-degrading enzymes, nor after the injection of the partially conjugated (either with the targetor or with cholesteryl) peptides. Modification of the spacer (S) function may allow for the peptidolytic release of the parent peptide from the conjugate at a desired rate, depending on the therapeutic objective.
# [7] = methohexital 90 mg/kg i.p. 10 min later
compound,measurement,setting,value
"Compound (C): locked-in targetor-peptide conjugate (m/z 760) of [D-Ala2]-Leu-enkephalin, formed from compound (B) by cleavage of the cholesteryl ester ({N‑methylnicotinoyl}-AY[dA]GFL; not fully specified)",processing in rat brain homogenate (in words),[1],processed by the brain peptidases similarly to the unmanipulated compound
same,level in brain tissue,[2],500-700 picomole/g tissue
"Org 2766: very active ACTH4-9 analog with oxidized methionine at 4, D-lysine at 8, phenylalanine at 9 (MEHF[dK]F; not fully specified (residue 1); printed as Met Glu His Phe Lys Phe)",potentiation,[3],1000 fold
"CC(C)CCC[C@@H](C)[C@H]1CC[C@H]2[C@@H]3CC=C4C[C@@H](OC(=O)[C@H](CCCNC(=N)N)NC(=O)[C@H](Cc5ccc(O)cc5)NC(=O)[C@H](C)NC(=O)C5=CN(C)C=CC5)CC[C@]4(C)[C@H]3CC[C@]12C [(31), 1,4-Dihydrotrigonellyl-Ala-Tyr-Arg-Cholesteryl Ester]",solubility in water (in words),[4],not soluble in water
"CC(C)CCC[C@@H](C)[C@H]1CC[C@H]2[C@@H]3CC=C4C[C@@H](OC(=O)CNC(=O)[C@@H]5CCCN5C(=O)[C@H](CC(C)C)NC(=O)[C@H](CCC(N)=O)NC(=O)[C@H](C)NC(=O)[C@H](C)NC(=O)C5=CN(C)C=CC5)CC[C@]4(C)[C@H]3CC[C@]12C [Compound (12), 1,4-Dihydrotrigonellyl-Ala-Ala-Gln-Leu-Pro-Gly-Cholesteryl Ester] ({Nicotinoyl(1-Me-1,4-dihydro)}-AAQLPG-{O(cholesteryl)})","methohexital induced sleeping time, individual animals",[5]; [7],12.08 min and 17.18 min and 27.05 min and 10.07 min and 16.40 min and 19.00 min and 8.13 min and 15.38 min and 17.93 min and 9.45 min
same,"methohexital induced sleeping time, mean",[5]; [7],15.27 min
same,No. of Death,[5],1
"CC(C)C[C@@H](NC(=O)[C@H](Cc1ccccc1)NC(=O)CNC(=O)[C@@H](C)NC(=O)[C@H](Cc1ccc(O)cc1)NC(=O)[C@H](C)NC(=O)c1ccc[n+](C)c1)C(=O)O [(70), Trigonellyl-Ala-Tyr-D-Ala-Gly-Phe-D-Leu-OH Methylsulfate] (X1-AY[dA]GF[dL]-OH)",IC50,[6],~100 nM
